Literature values in patent publication US20110189299A1, “PHARMACEUTICAL COMPOSITION CONTAINING SURFACE-COATED MICROPARTICLES” (NITTO DENKO CORPORATION, priority 2008, published 2011).

## CN(C)CCc1c[nH]c2ccc(C[C@H]3COC(=O)N3)cc12 [Zolmitriptan]
  pKa: 9.5
